Measurements as given in US20020098509A1, “Method for the quantitative determination of reversible acting inhibitors of the oxidoreductases” (priority 1995, published 2002).
Like-named read-outs stand apart in the source and are kept apart here.

Assays:
sarcosine oxidase [1] = test: Stirred vessel system, initial gradient of oxygen or hydrogen peroxide signal; assay type: biochemical; settings: for effect of substrate concentration on inhibition of the sarcosine oxidase, FIG. 16: 0.1 g/l sarcosine compared to 1.0 g/l sarcosine
Description: In contrast to the FIA system the stirred vessel system is a discontinuous process. In order to perform a measurement all necessary reaction partners are brought into the reaction chamber of the stirred vessel system and the course of reaction is been monitored by the appropriate detectors during a fixed time period. Afterwards the whole reaction mixture is removed. Then a new measurement can be done.
The reaction mixture of the stirred vessel system in FIG. 11 consists of the sample, substrate, buffer solution and enzyme. Here, the sample and the enzyme are added one after another and the sample itself containing the analyte, acetic acid for instance, in different concentrations. […] The result of the measurement is calculated from the initial gradient of the signal.
During the calibration via the initial gradient samples of different analyte concentration are added and the relating initial inclines are drawn into the chart in dependence of the analyte concentration (see FIGS. 12, 13 and 14). The sample containing the unknown analyte concentration is added to the reaction mixture in the same manner and is determined by using the initial incline which is compared to the calibration curve.

sarcosine oxidase [2] = settings: for inhibition of the sarcosine oxidase activity, FIG. 10: sarcosine oxidase 100 U
Description: In FIA systems an injected volume of the sample is transported to the detector by a continuous moving, not segmented carrier or transport flow via a mixing and reaction line. Meanwhile, the injected sample zone is broadened (dispersion) and reacts with the ingredients of the carrier flow. As a result of the chemical conversion, the changes in concentration of the participating components lead to a change of signal at the detector, which is characteristic for the concentration of the determined substance of the injected sample. In FIG. 1 the analyte (acetic acid) as well as the substrate (sarcosine) are injected as a sample into the carrier flow consisting of the working buffer. The mixing and reacting line contains the immobilized enzyme sarcosine oxidase, which reacts with the analyte and the substrate of the sample. The decrease of oxygen or the production of hydrogene peroxide is measured by means of an oxygen or hydrogene peroxide electrode. A typical measuring signal is reproduced in FIG. 2. The peak high H or surface S is proportional to the concentration of the sample. When calibrating via the peak heights, samples of different analyte concentrations are injected and the resulting peak heights in dependence of their analyte concentrations are drawn into a chart (FIG. 3). The sample of unknown analyte concentration is injected in the same manner and can be determined via the peak height with the help of the calibration curve. In FIG. 4 the substrate is added to the buffer solution and calibration is done by injecting the analyte. Again the analysis of the unknown sample can be be done by using the calibration curve as described in FIG. 5.

Compound	effect of substrate concentration on inhibition of the sarcosine oxidase, FIG. 16 (sarcosine oxidase [1])	amount of inhibition of the sarcosine oxidase (relative initial incline versus analyte concentration), FIG. 15 (sarcosine oxidase [1]; comparison of analytes, acetate and propionate as reference curves)	inhibition of the sarcosine oxidase activity, FIG. 10 (sarcosine oxidase [2]; 0.25 g/l respectively 0.5 g/l sarcosine)	inhibition of the sarcosine oxidase activity, FIG. 10 (sarcosine oxidase [2]; 1 g/l or 2 g/l sarcosine)	inhibitor strength (inhibition of the measuring system), FIG. 7 (sarcosine oxidase [2]; substances arising in biotechnological media, maximum concentration 0.1 mol/l)
CC=O [acetaldehyde]	only slightly influenced	lower			
CC(=O)O [acetate]	substantial higher inhibition		a considerable amount of inhibition	only a small amount of inhibition	quite strong
CCC(=O)O [propionate]	substantial higher inhibition				
